From ChEMBL document CHEMBL6078713, “Synthesis and mechanistic studies of 4-aminoquinoline-Isatin molecular hybrids and Schiff's bases as promising antimicrobial agents” (Eur J Med Chem, 2025)

Tested on: Escherichia coli
Test: Antibacterial activity against Escherichia coli clinical isolate ECJH11 assessed as diameter of zone of inhibition by disk diffusion assay
Type: functional

O=[N+]([O-])c1ccccc1/C=N/CCNc1ccnc2cc(Cl)ccc12
diameter of the inhibition zone (DIZ): 11 mm
